Here are results for 22 compounds from ChEMBL document CHEMBL6177985, “Discovery of Novel Cyclic Peptides as SMAD2-SMAD4 Interaction Inhibitors for the Treatment of Hepatic Fibrosis” (J Med Chem, 2025).

One may read the inhibition as the drop in the measured response relative to a control, in per cent. Read a high inhibition as a response far below the control.

In assay [1] the test system is LX-2. Put plainly: Antifibrotic activity against TGF-beta1 stimulated human LX-2 cells assessed as reduction in alpha-SMA expression at 100 uM incubated for 24 hrs by Western blotting analysis. The assay is classed as functional, cell-based. For orientation: A western blot detects proteins with antibodies after separation by electrophoresis.
Assay [2] relates to LX-2. Put plainly: Antifibrotic activity against TGF-beta1 stimulated human LX-2 cells assessed as reduction in COL1A1 expression at 100 uM incubated for 24 hrs by Western blotting analysis. It is filed as functional, cell-based.
The next assay is filed under the species Homo sapiens. Put plainly: Inhibition of TGF-beta induced his tagged human SMAD2/human SMAD4 interaction at 100 uM incubated for 1 hr followed by anti-His-HRP addition and measured after 1 hr by blocking assay relative to control. As to conditions: time 2.0 hrs.

Calls of active or inactive are those of the source. The calls are words filed in the database; no cut-off is given here.

In the case of H-TRAASFWETS-OH, the outcome in the assay on LX-2 [1] and in the assay on LX-2 [2] was inactive. The inhibition in the assay listed under Homo sapiens was 16.3%.

Turning to H-TRPAFFWETS-OH, the outcome in the assay on LX-2 [1] and in the assay with LX-2 [2] was inactive. The same compound returned an inhibition in the assay listed under Homo sapiens of 34.7%.

As for H-TRPANFWETS-OH, the result with LX-2 [1] and with LX-2 [2] was inactive. The compound further registered an inhibition in the assay listed under Homo sapiens of 42.6%.

Regarding H-TRPASKWETS-OH, the result in the assay with LX-2 [1] and in the assay with LX-2 [2] was inactive. The compound further yielded an inhibition in the assay listed under Homo sapiens of 35.2%.

Turning to H-TRPADFWETS-OH, the outcome in the assay on LX-2 [1] and with LX-2 [2] was inactive. In the assay filed under Homo sapiens, this compound showed an inhibition of 6.1%.

As for H-TAPASFWETS-OH, the outcome in the assay on LX-2 [1] and with LX-2 [2] was inactive. Also, the inhibition in the assay listed under Homo sapiens was 8.6%.

Consider `C[C@@H]1NC(=O)[C@@H]2CCCN2C(=O)[C@H](CCCNC(=N)N)NC(=O)[C@H]([C@@H](C)O)NC(=O)[C@H](CO)NC(=O)[C@H]([C@@H](C)O)NC(=O)[C@H](CCC(=O)O)NC(=O)[C@H](Cc2c[nH]c3ccccc23)NC(=O)[C@H](Cc2ccccc2)NC(=O)[C@H](CO)NC1=O`, for which the Activity result in the assay with LX-2 [1] and in the assay with LX-2 [2] was “Active; Compound Showed Marginal Reduction Compared To M10” each time. Further, the inhibition in the assay listed under Homo sapiens was found to be 42.7%.

For the compound H-TRPASFWETA-OH, the result in the assay with LX-2 [1] and with LX-2 [2] was inactive. The compound further displayed an inhibition in the assay filed under Homo sapiens of 14.5%.

For the compound H-TRPASNWETS-OH, the result with LX-2 [1] and with LX-2 [2] was inactive. Also, the inhibition in the assay filed under Homo sapiens was found to be 31.3%.

As for `C[C@H](NC(=O)[C@@H]1CCCN1C(=O)[C@H](CCCNC(=N)N)NC(=O)[C@@H](N)[C@@H](C)O)C(=O)N[C@H](CO)C(=O)N[C@@H](Cc1ccccc1)C(=O)N[C@@H](Cc1c[nH]c2ccccc12)C(=O)N[C@@H](CCC(=O)O)C(=O)N[C@H](C(=O)N[C@@H](CO)C(=O)O)[C@@H](C)O`, the outcome in the assay on LX-2 [1] and in the assay with LX-2 [2] was Active. This compound yielded an inhibition in the assay listed under Homo sapiens of 60.5%.

As to H-TRPAQFWETS-OH, the result in the assay on LX-2 [1] and in the assay with LX-2 [2] was inactive. In the assay filed under Homo sapiens, this compound yielded an inhibition of 31.9%.

Take H-TRPASRWETS-OH: the outcome in the assay with LX-2 [1] and in the assay with LX-2 [2] was inactive. The compound also had an inhibition in the assay filed under Homo sapiens of 27.1%.

As for H-TRPASYWETS-OH, the outcome with LX-2 [1] and with LX-2 [2] was inactive. The same compound had an inhibition in the assay listed under Homo sapiens of 20.7%.

Regarding H-TRPASAWETS-OH, the outcome in the assay on LX-2 [1] and in the assay with LX-2 [2] was Active. The compound also returned an inhibition in the assay listed under Homo sapiens of 52.7%.

Take H-TRPAEFWETS-OH: the outcome in the assay with LX-2 [1] and in the assay on LX-2 [2] was inactive. In the assay listed under Homo sapiens, this compound came in with an inhibition of 24.2%.

Take H-TRPASFWATS-OH: the outcome with LX-2 [1] and with LX-2 [2] was inactive. This compound came in with an inhibition in the assay listed under Homo sapiens of 11.2%.

For H-TRPAKFWETS-OH, the result with LX-2 [1] and in the assay on LX-2 [2] was inactive. Also, the inhibition in the assay filed under Homo sapiens was determined as 32.5%.

For H-TRPARFWETS-OH, the outcome in the assay on LX-2 [1] and in the assay with LX-2 [2] was inactive. The compound also registered an inhibition in the assay listed under Homo sapiens of 17.4%.

For H-TRPASEWETS-OH, the outcome with LX-2 [1] and in the assay on LX-2 [2] was inactive. This compound returned an inhibition in the assay listed under Homo sapiens of 10.9%.

For the compound H-TRPASFWETS-NH2, the result with LX-2 [1] and in the assay with LX-2 [2] was inactive. The inhibition in the assay filed under Homo sapiens stood at 49.8%.

Regarding H-TRPASQWETS-OH, the result in the assay on LX-2 [1] and in the assay with LX-2 [2] was inactive. Also, the inhibition in the assay listed under Homo sapiens was 32.4%.

Regarding Ac-TRPASFWETS-OH, the outcome in the assay with LX-2 [1] and in the assay with LX-2 [2] was inactive. The inhibition in the assay listed under Homo sapiens was found to be 51.9%.
